Source: EP4650362A1, “NEUROPROTECTIVE PSD-95 POLYPEPTIDE INHIBITOR AND USE THEREOF” (Beijing Tuo Jie Biopharmaceutical Co. Ltd., priority 2023, dated 2024)
Read-outs that look alike come from different tables or passages of the source. Non-standard residues stand in square brackets, D forms with d. Residues, ends and D or L forms follow the SMILES beside them. Chg = N[C@H](C(=O)O)C1CCCCC1; Tle = CC(C)(C)[C@H](N)C(=O)O; Dab = NCC[C@H](N)C(=O)O; Aib = CC(C)(N)C(=O)O

Columns and labels:
human PSD95-PDZ3 = target: T1, human PSD95-PDZ3 (Homo sapiens, UniProt P78352); experiment: binding ELISA with Biotin-PDZ3; conditions: plate coated with 2 µM test compound, Biotin-PDZ3 titrated; read-out: EC50 (PDZ3)
T1 construct: PDZ3 (309-401, Flag-His-Avitag-TEVsite tag); made in house
T1 sequence (P78352 309-401): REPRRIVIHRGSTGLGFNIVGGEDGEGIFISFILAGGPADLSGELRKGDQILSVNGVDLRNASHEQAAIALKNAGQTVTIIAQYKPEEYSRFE
Text: The three PDZ domains in the PSD95 protein are structurally similar. Binding to the PDZ1 and PDZ2 domains can effectively block PSD95-mediated neuroexcitotoxicity. However, the biological function of binding to the PDZ3 domain is unclear. Therefore, to avoid potential safety concerns, this test example assessed the selectivity of polypeptide compounds for the PDZ2 and PDZ3 domains, aiming to identify polypeptide compounds that specifically bind to the PDZ2 domain. The expression and purification of PSD95-PDZ3 protein were carried out with reference to the steps in 3.1.2. The amino acid sequence of PDZ3 protein: […] Site-specifically biotinylated Biotin-PDZ2 and Biotin-PDZ3 proteins were used for binding ELISA assays. […] After the blocking was complete, the blocking solution was discarded, and the plate was washed three times with PBST buffer. […] After the incubation was complete, the reaction solutions in the microplate were discarded, and the plate was washed three times with PBST. 100 μL of HRP-SA secondary antibody (diluted at 1:2000) was added to each well, and the plate was incubated at 37 °C for 1 h. After the plate was washed three times with PBST, 100 μL of TMB chromogenic substrate was added. […] The absorbance at 450 nm was measured using a SpectraMax M5 microplate reader, and the binding EC50 values of the test compounds to Biotin-PDZ2 or Biotin-PDZ3 were calculated using GraphPad Prism 9. […] The abilities of polypeptide compounds to bind to human PSD95-PDZ2 and human PSD95-PDZ3

human PSD95-PDZ2 [1] = target: T2, human PSD95-PDZ2 (Homo sapiens, UniProt P78352); experiment: competitive ELISA, affinity for human PSD95-PDZ2; format: binding; conditions: for IC50: competitive ELISA against 0.3 µM Biotin-NA-1, error of this test within three times, read-out: IC50
T2 construct: PDZ2 (155-249, the Flag-His-Avitag-TEVsite tag is italicized); made in house; host or cells: E. coli BL21-DE3 (PET vector)
Text: The objective of this test example was to determine the affinities of polypeptide compounds for human PSD95-PDZ2 using competitive ELISAs.
The amino acid sequence of PDZ2 protein was designed using human PSD95 (Uniprot Entry: P78352) as a template for PDZ: PDZ2 (155-249, the Flag-His-Avitag-TEVsite tag is italicized and was subsequently used for purification and biotinylation): […]
[…] (SEQ ID NO. 62). The PDZ2 gene was constructed onto a PET expression vector, and induced expression was performed using BL21-DE3 E. coli cells under conditions of 37 °C and 1 mM IPTG 4 h. Then centrifugation was performed at 10,000 g at 4 °C for 10 min, and the cell pellets were collected, resuspended in 1× PBS solution, and then lysed using a homogenizer. The lysate was centrifuged at high speed, and the supernatant was collected and filtered through a 0.45 µm membrane. A Ni-Sepharose affinity column was equilibrated with 5 column volumes of a 20 mM phosphate buffer (pH 8.0). The sample was centrifuged at high speed to remove impurities and loaded onto the column for binding. The column was rinsed with the 20 mM phosphate buffer until the A280 reading dropped to the baseline. Gradient elution was then performed with the 20 mM phosphate buffer and 0-500 mM imidazole. A protein was collected, and whether it was the target protein was determined. The purified sample described above was buffer-exchanged into 1× PBS solution, and the resulting solution was concentrated to a volume of 2 mL and further purified using a Superdex200 gel chromatography column (GE) equilibrated with 1× PBS. The target peak was collected and aliquoted for later use.
PSD95-PDZ2 (the tag was removed by TEV enzyme) was diluted with 1× PBS buffer to 1 µg/mL, added to a 96-well microplate (Corning, 9018, 25/box 96-well clear flat bottom plate) at 100 µL/well, and left to stand overnight at 4 °C for 16-20 h. After the liquid was discarded, the plate was washed three times with PBST (pH 7.4, 0.05% Tween-20) buffer, and a 4% BSA blocking solution diluted with PBST buffer was then added (300 µL/well). The plate was blocked by incubation in an incubator at 37 °C for 1 h. After the blocking was complete, the blocking solution was discarded, and the plate was washed three times with PBST buffer. Biotin-NA-1, at a constant concentration of 0.3 µM, and the test compounds, having a starting concentration of 100 µM and serially diluted ten-fold with PBS buffer to seven concentrations (100, 10, 1, 0.1, 0.01, 0.001, 0.0001, and 0 µM), were then added, and the plate was incubated in an incubator at 37 °C for 1 h. After the incubation was complete, the reaction solutions in the microplate were discarded, and the plate was washed three times with PBST. 100 µL of HRP-SA secondary antibody (diluted at 1:2000) was added to each well, and the plate was incubated at 37 °C for 1 h. After the plate was washed three times with PBST, 100 µL of TMB chromogenic substrate was added. The plate was incubated at room temperature for 1-3 min, and 100 µL of 1 M sulfuric acid was added to stop the reaction.
The absorbance at 450 nm was measured using a SpectraMax M5 microplate reader, and non-linear fitting was performed using GraphPad Prism 9 to calculate the binding IC50 values of the test compounds to PSD95-PDZ2 protein.

human PSD95-PDZ2 [2] = target: T2, human PSD95-PDZ2; experiment: binding ELISA with Biotin-PDZ2; conditions: for EC50: plate coated with 2 µM test compound, Biotin-PDZ2 titrated, read-out: EC50 (PDZ2)
Text: The three PDZ domains in the PSD95 protein are structurally similar. Binding to the PDZ1 and PDZ2 domains can effectively block PSD95-mediated neuroexcitotoxicity. However, the biological function of binding to the PDZ3 domain is unclear. Therefore, to avoid potential safety concerns, this test example assessed the selectivity of polypeptide compounds for the PDZ2 and PDZ3 domains, aiming to identify polypeptide compounds that specifically bind to the PDZ2 domain. Site-specifically biotinylated Biotin-PDZ2 and Biotin-PDZ3 proteins were used for binding ELISA assays. […] After the blocking was complete, the blocking solution was discarded, and the plate was washed three times with PBST buffer. […] After the incubation was complete, the reaction solutions in the microplate were discarded, and the plate was washed three times with PBST. 100 µL of HRP-SA secondary antibody (diluted at 1:2000) was added to each well, and the plate was incubated at 37 °C for 1 h. After the plate was washed three times with PBST, 100 µL of TMB chromogenic substrate was added. […] The absorbance at 450 nm was measured using a SpectraMax M5 microplate reader, and the binding EC50 values of the test compounds to Biotin-PDZ2 or Biotin-PDZ3 were calculated using GraphPad Prism 9. […] The abilities of polypeptide compounds to bind to human PSD95-PDZ2 and human PSD95-PDZ3
Target sequence in this assay (P78352 155-249): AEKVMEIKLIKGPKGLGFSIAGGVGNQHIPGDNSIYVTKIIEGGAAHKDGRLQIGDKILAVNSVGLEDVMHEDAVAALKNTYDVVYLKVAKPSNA

[3] = pharmacokinetic study in rats, single intravenous bolus injection; format: in vivo, SD rats; conditions: rats, intravenous bolus injection over 10 min, 3 nmol/g, n = 3
Procedure: With male SD rats as test animals, the pharmacokinetic behavior of polypeptide compounds administered via single intravenous bolus injection in rats (plasma) was studied.
Male SD rats weighing 170 to 200 grams and aged 4-6 weeks were purchased from Beijing Vital River Laboratory Animal Technology Co., Ltd. The polypeptide compounds were dissolved in 1× PBS, and the polypeptide compound solutions were then administered via intravenous bolus injection over 10 min at a dose of 3 nmol/g, with three animals per group. At each of the time points of 2 min, 8 min, 15 min, 30 min, 45 min, 60 min, and 120 min after the end of bolus injection, 0.2 mL of blood was collected and transferred to an EDTA-K2 anticoagulation centrifuge tube. The whole blood sample was centrifuged at 4 °C at 4000 g for 5 min, and a plasma sample was obtained by separation and cryopreserved at -80 °C.
The pharmacokinetic parameters of polypeptide compound 22, administered via intravenous bolus injection, in rats were determined using a similar method, with the difference being that an enzyme inhibitor was added immediately after blood collection.
The plasma concentrations of the test compounds were determined using the method in Test Example 3.4.3. Plasma concentration-time curves were plotted, and the pharmacokinetic parameters were calculated using PKSolver software. The experimental results are shown in Table 5-1, Table 5-2, and FIG. 3.

CC(C)[C@H](NC(=O)[C@H](CC(=O)O)NC(=O)[C@H](CO)NC(=O)[C@@H](NC(=O)[C@@H](NC(=O)[C@@H](NC(=O)[C@H](CCN)NC(=O)C(C)(C)NC(=O)CNC(=O)[C@@H](CCCNC(=N)N)NC(=O)[C@@H](CCCNC(=N)N)NC(=O)[C@@H](CCCNC(=N)N)NC(=O)[C@@H](CCC(N)=O)NC(=O)[C@@H](CCCNC(=N)N)NC(=O)[C@@H](CCCNC(=N)N)NC(=O)[C@@H](CCCCN)NC(=O)[C@@H](CCCCN)NC(=O)[C@@H](CCCNC(=N)N)NC(=O)CNC(=O)[C@H](N)Cc1ccc(O)cc1)[C@@H](C)O)C1CCCCC1)C(C)(C)C)C(=O)O [Polypeptide compound 19, y-G-r-k-k-r-r-q-r-r-r-G-Aib-Dab-T-Chg-Tle-S-D-V] (H-[dY]G[dR][dK][dK][dR][dR][dQ][dR][dR][dR]G[Aib][Dab]T[Chg][Tle]SDV-OH)
EC50 (human PSD95-PDZ3): > 1000 µM
IC50 (human PSD95-PDZ2 [1]): 0.612 µM
EC50 (human PSD95-PDZ2 [2]): 0.029 µM
AUC(0-inf) ([3]; male, SD, rat, plasma): 11800 ng·h/mL
MRT ([3]; male, SD, rat, plasma): 57.6 min
AUC(0-t) ([3]; male, SD, rat, plasma, read-out: AUC(0-t)): 10200 ng·h/mL
Cmax ([3]; male, SD, rat, plasma, read-out: Cmax): 19600 ng/mL
half-life ([3]; male, SD, rat, plasma, read-out: T1/2 (converted)): 43.8 min
AUClast/dose [3]: 1345

CC(C)[C@H](NC(=O)[C@H](CC(=O)O)NC(=O)[C@H](CO)NC(=O)[C@@H](NC(=O)[C@@H](NC(=O)[C@@H](NC(=O)CNC(=O)[C@@H](CCCNC(=N)N)NC(=O)[C@@H](CCCNC(=N)N)NC(=O)[C@@H](CCCNC(=N)N)NC(=O)[C@@H](CCC(N)=O)NC(=O)[C@@H](CCCNC(=N)N)NC(=O)[C@@H](CCCNC(=N)N)NC(=O)[C@@H](CCCCN)NC(=O)[C@@H](CCCCN)NC(=O)[C@@H](CCCNC(=N)N)NC(=O)CNC(=O)[C@H](N)Cc1ccc(O)cc1)[C@@H](C)O)C1CCCCC1)C(C)(C)C)C(=O)O [Polypeptide compound 21, y-G-r-k-k-r-r-q-r-r-r-G-T-Chg-Tle-S-D-V] (H-[dY]G[dR][dK][dK][dR][dR][dQ][dR][dR][dR]GT[Chg][Tle]SDV-OH)
EC50 (human PSD95-PDZ3): > 1000 µM
IC50 (human PSD95-PDZ2 [1]): 0.8 µM
rIC50 (human PSD95-PDZ2 [1]; ratio of the affinity of the polypeptide compound to the affinity of NA-1): 0.88
selectivity for the PSD95-PDZ2 domain (human PSD95-PDZ2 [2]; PDZ2 versus PDZ3, conclusion in words): comparable to that of the positive drugs NA-1 and NoNO42
EC50 (human PSD95-PDZ2 [2]): 0.018 µM
Specificity for PDZ2 (PDZ3/PDZ2) (human PSD95-PDZ2 [2]; ratio PDZ3/PDZ2): >10000
AUC(0-t) [3]: 5660 ng·h/mL
AUC(inf) [3]: 6396 ng·h/mL
AUClast/dose [3]: 745
Cmax [3]: 15643 ng/mL
MRTO-inf [3]: 48 min
T1/2 [3]: 43.2 min
